Peptide text beside a SMILES is read from it.
Legend:
GTPase KRas [1] = target: T1, GTPase KRas (Homo sapiens, UniProt P01116, G12D); experiment: Inhibition of biotinylated K-Ras G12D mutant (unknown origin) assessed as reduction in SOS1 (564 to 1049 residues)-mediated BODIPY-GDP-GTP exchange after 1 hr by TR-FRET assay
GTPase KRas [2] = target: T1, GTPase KRas; experiment: Inhibition of biotinylated K-Ras G12D mutant (unknown origin) assessed as reduction in SOS1 (564 to 1049 residues)-mediated BODIPY-GDP-GTP exchange after 1 hr in presence of DTT by TR-FRET assay
Homo sapiens [3] = species: Homo sapiens; experiment: Selectivity ratio of IC50 for inhibition of biotinylated wild type K-Ras (unknown origin) to IC50 for inhibition of biotinylated K-Ras G12D mutant (unknown origin)
Homo sapiens [4] = species: Homo sapiens; experiment: Selectivity ratio of IC50 for inhibition of biotinylated K-Ras G12C mutant (unknown origin) to IC50 for inhibition of biotinylated K-Ras G12D mutant (unknown origin)
GTPase KRas [5] = target: GTPase KRas (Homo sapiens, UniProt P01116, G12C); experiment: Inhibition of biotinylated K-Ras G12C mutant (unknown origin) assessed as reduction in SOS1 (564 to 1049 residues)-mediated BODIPY-GDP-GTP exchange after 1 hr by TR-FRET assay
GTPase KRas [6] = target: GTPase KRas (Homo sapiens, UniProt P01116); experiment: Inhibition of biotinylated wild-type K-Ras (unknown origin) assessed as inhibition of human SOS1 (564 to 1049 residues)-mediated BODIPY-GDP-GTP exchange after 1 hr by TR-FRET assay

| IC50 (GTPase KRas [1]) [nM] | IC50 (GTPase KRas [2]) [nM] | Ratio IC50 (Homo sapiens [3]) | Ratio IC50 (Homo sapiens [4]) | IC50 (GTPase KRas [5]) [nM] | IC50 (GTPase KRas [6]) [nM] | Structure (SMILES) |
| --- | --- | --- | --- | --- | --- | --- |
| 11 | 9770 | 13 | 7 | 82 | 142 | CC[C@H](C)[C@@H]1NC(=O)[C@H](Cc2ccc(O)cc2)NC(=O)[C@H](CC(C)C)NC(=O)[C@@H]2CCCN2C(=O)[C@@H](NC(C)=O)CSSC[C@@H](C(N)=O)NC(=O)[C@H](C(C)C)NC(=O)[C@@H]2CCCN2C(=O)[C@H](CC(=O)O)NC(=O)[C@H](Cc2ccc(O)cc2)NC(=O)[C@H](CO)NC1=O (HELM PEPTIDE1{[ac].C.P.L.Y.I.S.Y.D.P.V.C.[am]}$PEPTIDE1,PEPTIDE1,2:R3-12:R3$$$V2.0) |
| 19 | 172 | 41 | 6 | 113 | 763 | CC[C@H](C)[C@@H]1NC(=O)[C@H](Cc2ccc(O)cc2)NC(=O)[C@H](CC(C)C)NC(=O)[C@H](C)NC(=O)[C@@H](NC(=O)[C@H](CCCNC(=N)N)NC(=O)[C@H](CCCNC(=N)N)NC(=O)[C@H](CCCNC(=N)N)NC(=O)[C@H](CCCNC(=N)N)NC(C)=O)CSSC[C@@H](C(=O)N[C@@H](CCCNC(=N)N)C(=O)N[C@@H](CCCNC(=N)N)C(=O)N[C@@H](CCCNC(=N)N)C(=O)N[C@@H](CCCNC(=N)N)C(N)=O)NC(=O)[C@H](C(C)C)NC(=O)[C@@H]2CCCN2C(=O)[C@H](CC(=O)O)NC(=O)[C@H](Cc2ccc(O)cc2)NC(=O)[C@H](CO)NC1=O (HELM PEPTIDE1{[ac].R.R.R.R.C.A.L.Y.I.S.Y.D.P.V.C.R.R.R.R.[am]}$PEPTIDE1,PEPTIDE1,6:R3-16:R3$$$V2.0) |
| 1790 | > 100000 | > 56 | 1 | 1630 | > 100000 | CC[C@H](C)[C@@H]1NC(=O)[C@H](Cc2ccc(O)cc2)NC(=O)[C@H](C)NC(=O)[C@@H]2CCCN2C(=O)[C@@H](NC(=O)[C@H](CCCNC(=N)N)NC(=O)[C@H](CCCNC(=N)N)NC(=O)[C@H](CCCNC(=N)N)NC(=O)[C@H](CCCNC(=N)N)NC(C)=O)CSSC[C@@H](C(=O)N[C@@H](CCCNC(=N)N)C(=O)N[C@@H](CCCNC(=N)N)C(=O)N[C@@H](CCCNC(=N)N)C(=O)N[C@@H](CCCNC(=N)N)C(N)=O)NC(=O)[C@H](C(C)C)NC(=O)[C@@H]2CCCN2C(=O)[C@H](CC(=O)O)NC(=O)[C@H](Cc2ccc(O)cc2)NC(=O)[C@H](CO)NC1=O (HELM PEPTIDE1{[ac].R.R.R.R.C.P.A.Y.I.S.Y.D.P.V.C.R.R.R.R.[am]}$PEPTIDE1,PEPTIDE1,6:R3-16:R3$$$V2.0) |
| 50 | 192 | 34 | 1 | 53 | 1730 | CC[C@H](C)[C@@H]1NC(=O)[C@H](C)NC(=O)[C@H](CC(C)C)NC(=O)[C@@H]2CCCN2C(=O)[C@@H](NC(=O)[C@H](CCCNC(=N)N)NC(=O)[C@H](CCCNC(=N)N)NC(=O)[C@H](CCCNC(=N)N)NC(=O)[C@H](CCCNC(=N)N)NC(C)=O)CSSC[C@@H](C(=O)N[C@@H](CCCNC(=N)N)C(=O)N[C@@H](CCCNC(=N)N)C(=O)N[C@@H](CCCNC(=N)N)C(=O)N[C@@H](CCCNC(=N)N)C(N)=O)NC(=O)[C@H](C(C)C)NC(=O)[C@@H]2CCCN2C(=O)[C@H](CC(=O)O)NC(=O)[C@H](Cc2ccc(O)cc2)NC(=O)[C@H](CO)NC1=O (HELM PEPTIDE1{[ac].R.R.R.R.C.P.L.A.I.S.Y.D.P.V.C.R.R.R.R.[am]}$PEPTIDE1,PEPTIDE1,6:R3-16:R3$$$V2.0) |

Source: ChEMBL document CHEMBL4020739, “Investigation of the structural requirements of K-Ras(G12D) selective inhibitory peptide KRpep-2d using alanine scans and cysteine bridging” (Bioorg Med Chem Lett, 2017)
